Laboratory results reported in patent publication US6869949B2, “Polysubstituted imidazopyridines as gastric secretion inhibitors” (Altana Pharma AG, priority 2000, dated 2005).

tested on: acid secretion stimulated by pentagastrin of the perfused rat stomach; experiment: Testing of the secretion-inhibiting action on the perfused rat stomach; settings: dose 3 μmol/kg i.d., anesthetized CD rats, perfused stomach in vivo
Experimental: The abdomen of anesthetized rats (CD rats, female, 200-250 g; 1.5 g/kg i.m. urethane) was opened after tracheotomy by means of a median upper abdominal incision and a PVC catheter was fixed transorally in the esophagus and a further catheter via the pylorus such that the ends of the tubing just projected into the gastric lumen. The catheter leading from the pylorus led outwards through a side opening in the right abdominal wall.
After thorough rinsing (about 50-100 ml), warm physiological NaCl solution at 37° C. was continuously passed through the stomach (0.5 ml/min, pH 6.8-6.9; Braun-Unita I). The pH (pH meter 632, glass electrode EA 147; φ=5 mm, Metrohm), and, by titration with a freshly prepared 0.01 N NaOH solution to pH 7 (Dosimat 665 Metrohm), the secreted HCl were determined in the effluent in each case collected at an interval of 15 minutes.
The gastric secretion was stimulated by continuous perfusion of 1 μg/kg (=1.65 ml/h) of i.v. pentagastrin (left femoral vein) about 30 min after the end of the operation (i.e. alter determination of 2 preliminary fractions). The substances to be tested were administered intraduodenally in 2,5 ml/kg of liquid volume 60 min after the start of the pentagastrin continuous infusion.
The body temperature of the animals was kept at a constant 37.8-38° C. by infrared irradiation and heat pads (automatic, stepless control by means of rectal temperature sensors).

SMILES | Inhibition of acid secretion (%)
COCCOCCO[C@@H]1c2ccn3c(C)c(C)nc3c2N[C@H](c2ccccc2)[C@H]1O [Example 8, (7R,8R,9R)-8-Hydroxy-7-[2-(2-methoxyethoxy)ethoxy]-2,3-dimethyl-9-phenyl-7,8,9,10-tetrahydroimidazo[1,2-h][1,7]naphthyridine] | 100
COCCOCCO[C@H]1c2ccn3c(C)c(C)nc3c2N[C@H](c2ccccc2)[C@H]1O [Example 9, (7S,8R,9R)-8-Hydroxy-7-[2-(2-methoxyethoxy)ethoxy]2,3-dimethyl-9-phenyl-7,8,9,10-tetrahydroimidazo[1,2-h][1,7]naphthyridine] | 100
Cc1cn2ccc3c(c2n1)N[C@H](c1ccccc1)[C@@H](O)[C@@H]3O [Example 11, (7R,8R,9R)-7,8-Dihydroxy-2-methyl-9-phenyl-7,8,9,10-tetrahydroimidazo[1,2-h][1,7]naphthyridine] | 100
COCCO[C@H]1c2ccn3cc(C)nc3c2N[C@H](c2ccccc2)[C@H]1O [Example 12a, (7S,8R,9R)-8-hydroxy-2-methyl-7-(2-methoxyethoxy)-9-phenyl-7,8,9,10-tetrahydroimidazo[1,2-h][1,7]naphthyridine] | 100
COCCO[C@@H]1c2ccn3cc(C)nc3c2N[C@H](c2ccccc2)[C@H]1O [Example 12b, (7R,8R,9R)-8-hydroxy-2-methyl-7-(2-methoxyethoxy)-9-phenyl-7,8,9,10-tetrahydroimidazo[1,2-h][1,7]-naphthyridine] | 100
COCCO[C@@H]1c2ccn3c(Br)c(C)nc3c2N[C@H](c2ccccc2)[C@H]1O [Example 13, (7R,8R,9R)-3-Bromo-8-hydroxy-7-(2-methoxyethoxy)-2-methyl-9-phenyl-7,8,9,10-tetrahydroimidazo[1,2-h][1,7]naphthyridine] | 100
COCCO[C@@H]1c2ccn3c(Cl)c(C)nc3c2N[C@H](c2ccccc2)[C@H]1O [Example 14, (7R,8R,9R)-3-Chloro-8-hydroxy-7-(2-methoxyethoxy)-2-methyl-9-phenyl-7,8,9,10-tetrahydroimidazo[1,2-h][1,7]naphthyridine] | 100
COCCO[C@@H]1c2ccn3c(Cl)c(C)nc3c2O[C@H](c2ccccc2)[C@@H]1O [Example 16, (7R,8R,9R)-3-Chloro-8-hydroxy-7-(2-methoxyethoxy)-2-methyl-9-phenyl-7H-8,9-dihydro-pyrano[2,3-c]imidazo[1,2-a]pyridine] | 100
COCCO[C@@H]1c2ccn3cc(C)nc3c2O[C@H](c2ccccc2)[C@@H]1O [Example 17, (7R,8R,9R)-8-Hydroxy-7-(2-methoxyethoxy)-2-methyl-9-phenyl-7H-8,9-dihydro-pyrano[2,3-c]imidazo[1,2-a]pyridine] | 100
Cc1cn2ccc3c(c2n1)O[C@H](c1ccccc1)[C@H](O)[C@@H]3O [Example 18, (7R,8R,9R)-7,8-Dihydroxy-2-methyl-9-phenyl-7H-8,9-dihydropyrano[2,3-c]imidazo[1,2-a]pyridine] | 100
CO[C@@H]1c2ccn3cc(C)nc3c2N[C@H](c2ccccc2)[C@H]1O [Example 20, (7R,8R,9R)-8-Hydroxy-7-methoxy-2-methyl-9-phenyl-7,8,9,10-tetrahydroimidazo[1,2-h][1,7]naphthyridine] | 100
CO[C@H]1c2ccn3cc(C)nc3c2N[C@H](c2ccccc2)[C@H]1O [Example 21, (7S,8R,9R)-8-Hydroxy-7-methoxy-2-methyl-9-phenyl-7,8,9,10-tetrahydroimidazo[1,2-h][1,7]naphthyridine] | 100
COCCO[C@@H]1c2ccn3c(CO)c(C)nc3c2N[C@H](c2ccccc2)[C@H]1O [Example 22, (7R,8R,9R)-3-Hydroxymethyl-8-hydroxy-7-(2-methoxyethoxy)-2-methyl-9-phenyl-7,8,9,10-tetrahydroimidazo[1,2-h][1,7]naphthyridine] | 100

tested on: not given; experiment: not given; settings: not given

SMILES | melting point
Cc1nc2c3c(ccn2c1C)C(=O)C(O)C(c1ccsc1)N3 (centres unmarked) [Example 1, 8-Hydroxy-2,3-dimethyl-9-(3-thienyl)-7,8,9,10-tetrahydroimidazo[1,2-h][1,7]naphthyridin-7-one] | 222 to 225 °C
Cc1nc2c3c(ccn2c1C)C(O)C(O)C(c1ccsc1)N3 (centres unmarked) [Example 2, 7,8-Dihydroxy-2,3-dimethyl-9-(3-thienyl)-7,8,9,10-tetrahydroimidazo[1,2-h][1,7]naphthyridine] | 134 to 138 °C
Cc1nc2c3c(ccn2c1C)C(=O)CC(c1ccsc1)N3 (centres unmarked) [Example 3, 2,3-Dimethyl-9-(3-thienyl)-7,8,9,10-tetrahydroimidazo[1,2-h][1,7]naphthyridin-7-one] | 176 to 177 °C
Cc1nc2c3c(ccn2c1C)C(O)CC(c1ccsc1)N3 (centres unmarked) [Example 4, 7-Hydroxy-2,3-dimethyl-9-(3-thienyl)-7,8,9,10-tetrahydroimidazo[1,2-h][1,7]naphthyridine] | 192 to 194 °C
Cc1nc2c3c(ccn2c1C)C(O)CC(c1ccoc1)N3 (centres unmarked) [Example 7, 9-(3-Furyl)-7-hydroxy-2,3-dimethyl-7,8,9,10-tetrahydroimidazo[1,2-h][1,7]naphthyridine] | 221 to 222 °C
Cc1cn2ccc3c(c2n1)N[C@H](c1ccccc1)[C@@H](O)[C@@H]3O [Example 11, (7R,8R,9R)-7,8-Dihydroxy-2-methyl-9-phenyl-7,8,9,10-tetrahydroimidazo[1,2-h][1,7]naphthyridine] | 119 °C (dec.)
COCCO[C@@H]1c2ccn3c(Br)c(C)nc3c2N[C@H](c2ccccc2)[C@H]1O [Example 13, (7R,8R,9R)-3-Bromo-8-hydroxy-7-(2-methoxyethoxy)-2-methyl-9-phenyl-7,8,9,10-tetrahydroimidazo[1,2-h][1,7]naphthyridine] | 153 to 154 °C
COCCO[C@@H]1c2ccn3c(Cl)c(C)nc3c2N[C@H](c2ccccc2)[C@H]1O [Example 14, (7R,8R,9R)-3-Chloro-8-hydroxy-7-(2-methoxyethoxy)-2-methyl-9-phenyl-7,8,9,10-tetrahydroimidazo[1,2-h][1,7]naphthyridine] | 123 to 126 °C
COCCO[C@@H]1c2ccn3c(CO)c(C)nc3c2N[C@H](c2ccccc2)[C@H]1O [Example 22, (7R,8R,9R)-3-Hydroxymethyl-8-hydroxy-7-(2-methoxyethoxy)-2-methyl-9-phenyl-7,8,9,10-tetrahydroimidazo[1,2-h][1,7]naphthyridine] | 180 to 183 °C
COCCO[C@@H]1c2ccn3c(-c4ccccc4)c(C)nc3c2N[C@H](c2ccccc2)[C@H]1O [Example 25, (7R,8R,9R)-3,9-Diphenyl-8-hydroxy-7-(2-methoxyethoxy)-2-methyl-7,8,9,10-tetrahydroimidazo[1,2-h][1,7]naphthyridine] | 190 to 192 °C
COCc1nc2c3c(ccn2c1C)C(=O)[C@H](O)[C@@H](c1ccccc1)N3 [Example 26, (8R,9R)-8-Hydroxy-2-methoxymethyl-3-methyl-9-phenyl-7,8,9,10-tetrahydroimidazo[1,2-h][1,7]naphthyridin-7-one] | 168 to 173 °C
COCc1nc2c3c(ccn2c1C)[C@@H](O)[C@H](O)[C@@H](c1ccccc1)N3 [Example 27, (7R,8R,9R)-7,8-Dihydroxy-2-methoxymethyl-3-methyl-9-phenyl-7,8,9,10-tetrahydroimidazo[1,2-h][1,7]naphthyridine] | 102 to 104 °C
COCCO[C@H]1c2ccn3c(C)c(COC)nc3c2N[C@H](c2ccccc2)[C@H]1O [Example 28a, (7S,8R,9R)-8-hydroxy-7-(2-methoxyethoxy)-2-methoxymethyl-3-methyl-9-phenyl-7,8,9,10-tetrahydroimidazo[1,2-h][1,7]naphthyridine] | 63 to 65 °C
